27 compounds from patent publication US7354936B2, “2-phenylpyran-4-one derivatives” (Almirall AG, priority 2000, dated 2008) can be followed below.

One series concerns the target T1, COX-2 (Homo sapiens, UniProt P35354).
T1 construct: incubated in the presence of LPS (10:g/ml) for 24 h at 37° C. in order to induce the COX-2 expression; from tissue; host or cells: human whole blood (heparinized) from healthy volunteers, LPS-stimulated for 24 h
T1 sequence (P35354 18-604): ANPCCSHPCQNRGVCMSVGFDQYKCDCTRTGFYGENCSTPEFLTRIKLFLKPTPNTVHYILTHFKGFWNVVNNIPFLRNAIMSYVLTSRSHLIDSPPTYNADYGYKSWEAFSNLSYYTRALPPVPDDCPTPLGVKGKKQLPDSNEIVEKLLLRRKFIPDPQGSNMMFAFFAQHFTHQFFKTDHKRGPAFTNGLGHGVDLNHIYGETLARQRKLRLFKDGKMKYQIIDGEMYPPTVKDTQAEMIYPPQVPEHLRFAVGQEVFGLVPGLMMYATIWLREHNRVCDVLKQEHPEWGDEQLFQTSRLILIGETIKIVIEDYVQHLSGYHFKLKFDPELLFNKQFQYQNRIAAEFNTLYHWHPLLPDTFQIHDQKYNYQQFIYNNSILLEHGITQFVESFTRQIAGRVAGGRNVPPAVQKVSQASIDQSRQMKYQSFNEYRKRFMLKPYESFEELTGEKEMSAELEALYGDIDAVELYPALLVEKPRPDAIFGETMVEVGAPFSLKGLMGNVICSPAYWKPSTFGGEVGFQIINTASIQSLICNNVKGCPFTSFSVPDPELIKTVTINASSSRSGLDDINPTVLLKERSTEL
Briefly: COX-2 activity in human whole blood (PGE2, LPS-induced). The series is classed as cell-based. The conditions noted are these: for IC50: LPS 24 h at 37° C., PGE2 by ELISA; for Ratio COX-1/COX-2: ratio of COX-1/COX-2 IC50 values. On the technique in general: An ELISA detects its analyte on a solid surface through an enzyme-linked reagent.

The target in a further series is T2, COX-1 (Homo sapiens, UniProt P23219).
T2 construct: Fresh blood from healthy volunteers; from tissue; host or cells: human whole blood (heparinized) from healthy volunteers
Kind of series: COX-1 activity in human whole blood (TXB2, calcium ionophore A23187). The series is classed as cell-based. The conditions noted are these: for IC50: 1 h at 37° C., TXB2 by ELISA; for inhibition at 100 µM: read-out: COX-1 inhibition at 100 μM, at 100 μM.

Bounds are passed on as bounds.

T2 sequence (P23219 24-599): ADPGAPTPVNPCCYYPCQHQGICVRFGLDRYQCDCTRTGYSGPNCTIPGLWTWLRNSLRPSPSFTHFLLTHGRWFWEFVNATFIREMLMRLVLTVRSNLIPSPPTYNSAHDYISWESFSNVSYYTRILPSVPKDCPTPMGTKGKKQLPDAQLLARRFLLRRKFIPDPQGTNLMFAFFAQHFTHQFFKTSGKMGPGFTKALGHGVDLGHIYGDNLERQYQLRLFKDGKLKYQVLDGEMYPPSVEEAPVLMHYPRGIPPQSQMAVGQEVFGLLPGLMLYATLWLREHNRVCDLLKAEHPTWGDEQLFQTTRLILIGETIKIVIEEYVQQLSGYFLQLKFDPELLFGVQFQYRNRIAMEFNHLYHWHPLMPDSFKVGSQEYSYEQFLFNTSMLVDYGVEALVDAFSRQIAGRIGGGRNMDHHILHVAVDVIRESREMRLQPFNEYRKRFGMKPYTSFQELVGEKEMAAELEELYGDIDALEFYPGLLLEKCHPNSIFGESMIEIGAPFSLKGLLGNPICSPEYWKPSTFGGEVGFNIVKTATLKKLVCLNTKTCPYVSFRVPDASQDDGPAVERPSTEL
Method for COX-1: (§1) COX-1 and COX-2 Activities in Human Whole Blood
For the COX-1 activity determination, 500:1 aliquots of blood were incubated with either 5:1 vehicle (dimethylsulphoxide) or 5:1 of a test compound for 1 h at 37° C. Calcium ionophore A23187 (25:M) was added 20 min before stopping the incubation. Plasma was separated by centrifugation (10 min at 13000 rpm) and kept at −30° C. until TXB2 levels were measured using an enzyme immunoassay kit (ELISA).
The effect of the compounds was evaluated by incubating each compound at five to six different concentrations with triplicate determinations. IC50 values were obtained by non-linear regression using InPlot, GraphPad software on an IBM computer.
Method for COX-2: as §1
Plasma was separated by centrifugation (10 min at 13000 rpm) and kept at −30° C. until PGE2 levels were measured using an enzyme immunoassay kit (ELISA). […] IC50 values were obtained by non-linear regression using InPlot, GraphPad software on an IBM computer.

By IC50 is commonly meant the concentration that gives 50% inhibition. Broadly, the melting point is the temperature of the solid-liquid transition. In turn, `Cc1cc(=O)c(Oc2ccc(F)cc2C)c(-c2ccc(S(C)(=O)=O)cc2)o1` [Example 1, 3-(4-Fluoro-2-methylphenoxy)-2-(4-methanesulfonylphenyl)-6-methyl pyran-4-one] yielded a melting point of 146 °C. Besides, at COX-2, the concentration for half-maximal inhibition (IC50) was 0.18 µM and the “Ratio COX-1/COX-2” value was found to be 118.
With `Cc1cc(=O)c(Oc2ccc(Cl)cc2C)c(-c2ccc(S(C)(=O)=O)cc2)o1` [Example 2, 3-(4-Chloro-2-methylphenoxy)-2-(4-methanesulfonylphenyl)-6-methyl pyran-4-one], the half-inhibitory concentration (IC50) on COX-1 was found to be 38.5 µM. Besides, at COX-2, the half-maximal inhibitory concentration (IC50) stood at 0.13 µM and the “Ratio COX-1/COX-2” value is reported as 296.
Taken in the same sequence, the figures for `Cc1ccc(Oc2c(-c3ccc(S(C)(=O)=O)cc3)oc(C)cc2=O)c(Cl)c1` [Example 3, 3-(2-Chloro-4-methylphenoxy)-2-(4-methanesulfonylphenyl)-6-methyl pyran-4-one] were 16.3 µM, 0.24 µM and 68.
With `Cc1cc(=O)c(Oc2ccc(Br)cc2F)c(-c2ccc(S(C)(=O)=O)cc2)o1` [Example 6, 3-(4-Bromo-2-fluorophenoxy)-2-(4-methanesulfonylphenyl)-6-methyl pyran-4-one], the IC50 on COX-1 amounted to 40.2 µM. In addition, the “Ratio COX-1/COX-2” value on COX-2 is given as 268.
For the compound `Cc1cc(=O)c(Oc2ccc(Br)cc2Cl)c(-c2ccc(S(C)(=O)=O)cc2)o1` [Example 7, 3-(4-Bromo-2-chlorophenoxy)-2-(4-methanesulfonylphenyl)-6-methyl pyran-4-one], the IC50 on COX-2 came to 0.21 µM.
`Cc1cc(=O)c(Oc2ccc(Br)cc2Br)c(-c2ccc(S(C)(=O)=O)cc2)o1` [Example 8, 3-(2,4-Dibromophenoxy)-2-(4-methanesulfonylphenyl)-6-methyl-pyran-4-one]: the IC50 at COX-1 was 57.5 µM. Also, on COX-2, half-maximal inhibition (IC50) was put at 1.13 µM and the “Ratio COX-1/COX-2” value amounted to 51.
`Cc1cc(=O)c(Oc2ccccc2C)c(-c2ccc(S(C)(=O)=O)cc2)o1` [Example 10, 2-(4-Methanesulfonylphenyl)-6-methyl-3-(2-methylphenoxy)pyran-4-one] displayed a melting point of 168 °C. Moreover, the IC50 on COX-1 was determined as 19.9 µM. For the same compound, on COX-2, inhibition was half-maximal at 0.086 µM (IC50) and the “Ratio COX-1/COX-2” value is listed as 231.
Compound `Cc1cccc(Oc2c(-c3ccc(S(C)(=O)=O)cc3)oc(C)cc2=O)c1` [Example 11, 2-(4-Methanesulfonylphenyl)-6-methyl-3-(3-methylphenoxy)pyran-4-one] registered a melting point of 162 °C. The IC50 at COX-1 amounted to 14.2 µM. Further, on COX-2, it took 0.3 µM to reach half-maximal inhibition (IC50) and the “Ratio COX-1/COX-2” value is listed as 47.
The compound `Cc1ccc(Oc2c(-c3ccc(S(C)(=O)=O)cc3)oc(C)cc2=O)c(F)c1` [Example 12, 3-(2-Fluoro-4-methylphenoxy)-2-(4-methanesulfonylphenyl)-6-methyl pyran-4-one] returned a melting point of 171 °C.
With `CCc1oc(-c2ccc(S(C)(=O)=O)cc2)c(Oc2ccc(F)cc2F)c(=O)c1C` [Example 13, 3-(2,4-Difluorophenoxy)-6-ethyl-2-(4-methanesulfonylphenyl)-5-methyl pyran-4-one], the melting point amounted to 200 °C.
`Cc1oc(-c2ccc(S(C)(=O)=O)cc2)c(Oc2ccc(F)cc2F)c(=O)c1Cl` [Example 14, 3-Chloro-5-(2,4-difluorophenoxy)-6-(4-methanesulfonylphenyl)-2-methyl pyran-4-one] had a melting point of 210 °C.
The compound `Cc1oc(-c2ccc(S(C)(=O)=O)cc2)c(Oc2ccc(F)cc2)c(=O)c1Cl` [Example 15, 3-Chloro-5-(4-fluorophenoxy)-6-(4-methanesulfonylphenyl)-2-methyl pyran-4-one] displayed a melting point of 279 °C.
With `Cc1oc(-c2ccc(S(C)(=O)=O)cc2)c(Oc2ccc(Cl)cc2)c(=O)c1Cl` [Example 16, 3-Chloro-5-(4-chlorophenoxy)-6-(4-methanesulfonylphenyl)-2-methyl pyran-4-one], the melting point is 274 °C. Further, at COX-1, the IC50 amounted to 26 µM. Also, on COX-2, the IC50 is 0.53 µM and the “Ratio COX-1/COX-2” value is 74.
With `Cc1oc(-c2ccc(S(C)(=O)=O)cc2)c(Oc2ccc(F)cc2F)c(=O)c1Br` [Example 17, 3-Bromo-5-(2,4-difluorophenoxy)-6-(4-methanesulfonylphenyl)-2-methyl pyran-4-one], the IC50 at COX-1 was determined as 20 µM. On COX-2, the IC50 is 0.78 µM and the “Ratio COX-1/COX-2” value is reported as 27.
On to `Cc1oc(-c2ccc(S(C)(=O)=O)cc2)c(Oc2ccc(Cl)cc2)c(=O)c1Br` [Example 18, 3-Bromo-5-(4-chlorophenoxy)-6-(4-methanesulfonylphenyl)-2-methyl pyran-4-one], for which the melting point was found to be 251 °C. Further, the IC50 at COX-1 is 76.7 µM. Further, at COX-2, the IC50 stood at 0.82 µM and the “Ratio COX-1/COX-2” value turned out to be 93.
Consider `Cc1oc(-c2ccc(S(C)(=O)=O)cc2)c(Oc2ccc(F)cc2F)c(=O)c1C` [Example 19, 3-(2,4-Difluorophenoxy)-5,6-dimethyl-2-(4-methanesulfonylphenyl)pyran-4-one], for which the melting point was 192 °C. Further, at COX-1, the IC50 was 14.6 µM. On COX-2, the IC50 amounted to 0.082 µM and the “Ratio COX-1/COX-2” value came to 178.
Taken in the same sequence, the figures for `C=Cc1c(C)oc(-c2ccc(S(C)(=O)=O)cc2)c(Oc2ccc(F)cc2F)c1=O` [Example 20, 3-(2,4-Difluorophenoxy)-2-(4-methanesulfonylphenyl)-6-methyl-5-vinyl pyran-4-one] were 184 °C, 31.2 µM, 1.43 µM and 22.
As to `CCc1c(C)oc(-c2ccc(S(C)(=O)=O)cc2)c(Oc2ccc(F)cc2F)c1=O` [Example 21, 3-(2,4-Difluorophenoxy)-5-ethyl-2-(4-methanesulfonylphenyl)-6-methyl pyran-4-one], the melting point was determined as 173 °C. For the same compound, at COX-1, the IC50 stood at 35.6 µM. Moreover, at COX-2, the IC50 was determined as 0.58 µM and the “Ratio COX-1/COX-2” value was 62.
For `CS(=O)(=O)c1ccc(-c2oc(CO)cc(=O)c2Oc2ccc(F)cc2F)cc1` [Example 22, 3-(2,4-Difluorophenoxy)-6-hydroxymethyl-2-(4-methanesulfonylphenyl) pyran-4-one], in that order: 205 °C, 53 µM, 0.19 µM and 279.
As a reminder, the inhibition is the relative decrease from the control value, in per cent. The compound `CS(=O)(=O)c1ccc(-c2oc(CO)cc(=O)c2Oc2ccc(F)cc2)cc1` [Example 23, 3-(4-Fluorophenoxy)-6-hydroxymethyl-2-(4-methanesulfonylphenyl)pyran-4-one] showed a melting point of 206 °C. The inhibition at 100 µM on COX-1 was determined as 2%. Further, on COX-2, the IC50 is 1.44 µM and the “Ratio COX-1/COX-2” value is on record as greater than 70.
`CS(=O)(=O)c1ccc(-c2oc(CO)cc(=O)c2Oc2ccc(Cl)cc2)cc1` [Example 24, 3-(4-Chlorophenoxy)-6-hydroxymethyl-2-(4-methanesulfonylphenyl)pyran-4-one] came in with a melting point of 227 °C. Besides, at COX-1, the inhibition at 100 µM is 13%. Further, on COX-2, the IC50 is 0.6 µM and the “Ratio COX-1/COX-2” value was greater than 150.
Compound `CS(=O)(=O)c1ccc(-c2oc(CO)cc(=O)c2Oc2ccc(Br)cc2F)cc1` [Example 25, 3-(2-Fluoro-4-bromophenoxy)-6-hydroxymethyl-2-(4-methanesulfonylphenyl)pyran-4-one] returned a melting point of 202 to 203 °C.
For the compound `COCc1cc(=O)c(Oc2ccc(F)cc2)c(-c2ccc(S(C)(=O)=O)cc2)o1` [Example 27, 3-(4-Fluorophenoxy)-2-(4-methanesulfonylphenyl)-6-methoxymethylpyran-4-one], the IC50 at COX-1 stood at 86.3 µM. Also, at COX-2, the concentration for half-maximal inhibition (IC50) amounted to 0.32 µM and the “Ratio COX-1/COX-2” value stood at 270.
In turn, `CC(=O)OCc1cc(=O)c(Oc2ccc(F)cc2F)c(-c2ccc(S(C)(=O)=O)cc2)o1` [Example 29, Acetic acid [5-(2,4-difluorophenoxy)-6-(4-methanesulfonylphenyl)-4-oxo-4H-pyran-2-yl]methyl ester] came in with a melting point of 175 °C.
On to `CS(=O)(=O)c1ccc(-c2oc(C(=O)O)cc(=O)c2Oc2ccc(Cl)cc2)cc1` [Example 33, 5-(4-Chlorophenoxy)-6-(4-methanesulfonylphenyl)-4-oxo-4H-pyran-2-carboxylic acid], for which the melting point came out at 263 °C.
Still for that read-out and setting: the result for `CS(=O)(=O)c1ccc(-c2oc(C(F)F)cc(=O)c2Oc2ccc(F)cc2F)cc1` [Example 34, 6-(1,1-Difluoromethyl)-3-(2,4-difluorophenoxy)-2-(4-methanesulfonylphenyl)pyran-4-one] reads 156 °C; that for `Cc1c(C(F)F)oc(-c2ccc(S(C)(=O)=O)cc2)c(Oc2ccc(F)cc2F)c1=O` [Example 38, 2-(1,1-Difluoromethyl)-5-(2,4-difluorophenoxy)-6-(4-methanesulfonylphenyl)-3-methylpyran-4-one], 187.8 to 188.6 °C.
